Experimental data from patent publication US9247740B2, “Isoxazoline derivatives as insecticidal compounds” (Syngenta Participations AG, priority 2011, dated 2016).

Experiments:
Type in all cases: in vivo
[1] = tested on: Plutella xylostella (Diamond Back Moth); experiment: Plutella xylostella larval test on artificial diet; conditions: 144 h, 200 ppm (concentration in well 18 ppm), L2 larvae, larval mortality and growth regulation after 6 days
Source text: (§1) This Example illustrates the insecticidal and acaricidal properties of compounds of formula (I).

[2] = tested on: Heliothis virescens (Tobacco Budworm); experiment: Heliothis virescens egg test on artificial diet; conditions: 96 h, 200 ppm (concentration in well 18 ppm), eggs 0-24 h old on artificial diet, egg mortality, larval mortality, growth regulation after 4 days
Source text: as §1

[3] = tested on: Tetranychus urticae (Two-Spotted Spider Mite); experiment: Tetranychus urticae leaf disc spray test; conditions: foliar, 192 h, 200 ppm spray on bean leaf discs, mixed ages, egg, larval and adult mortality 8 days later
Source text: as §1

[4] = tested on: Diabrotica balteata (Corn Root Worm); experiment: Diabrotica balteata larval test on artificial diet; conditions: 120 h, 200 ppm (concentration in well 18 ppm), L2 larvae, larval mortality and growth regulation after 5 days
Source text: as §1

[5] = tested on: Spodoptera littoralis (Egyptian Cotton Leafworm); experiment: Spodoptera littoralis leaf disc spray test; conditions: foliar, 72 h, 200 ppm spray on cotton leaf discs, mortality, feeding behavior, growth regulation 3 days after treatment
Protocol: This Example illustrates the insecticidal and acaricidal properties of compounds of formula (I). Tests were performed as follows:

[6] = tested on: Thrips tabaci (Onion Thrips); experiment: Thrips tabaci leaf disc spray test; conditions: foliar, 168 h, 200 ppm spray on sunflower leaf discs, mixed ages, mortality after 7 days
Source text: as §1

Measured: pest or weed control at 200 ppm

Nc1cc(C2=NOC(c3cc(Cl)cc(Cl)c3)(C(F)(F)F)C2)ccc1C(=O)NC1CSC1 (stereo not shown) [Compound B57, 4-[5-(3,5-dichlorophenyl)-5-trifluoromethyl-4H-isoxazol-3-yl]-2-amino-N-(thietan-3-yl)benzamide]
not listed: [6]
≥ 80%: all other assays above

Cc1cc(C2=NOC(c3c[nH]c(C(F)(F)F)c3)(C(F)(F)F)C2)ccc1C(=O)NC1CSC1 (stereo not shown) [Compound C010, 2-methyl-N-(thietan-3-yl)-4-[5-(trifluoromethyl)-5-[5-(trifluoromethyl)-1H-pyrrol-3-yl]-4H-isoxazol-3-yl]benzamide]
≥ 80%: [3] | [6]

Cc1cc(C2=[N+]([O-])OC(c3cc(Cl)cc(Cl)c3)(C(F)(F)F)C2)ccc1C(=O)NC1CSC1 (stereo not shown) [Compound C011, 4-[5-(3,5-dichlorophenyl)-2-oxido-5-(trifluoromethyl)-4H-isoxazol-2-ium-3-yl]-2-methyl-N-(thietan-3-yl)benzamide]
≥ 80%: [2] | [4] | [5]

Cc1cc(C2=NOC(c3c[nH]c(C(F)(F)F)c3)(C(F)(F)F)C2)ccc1C(=O)NC1CS(=O)(=O)C1 (stereo not shown) [Compound C008, N-(1,1-dioxothietan-3-yl)-2-methyl-4-[5-(trifluoromethyl)-5-[5-(trifluoromethyl)-1H-pyrrol-3-yl]-4H-isoxazol-3-yl]benzamide]
≥ 80%: [2] | [3] | [6]

Cc1cc(C2=[N+]([O-])OC(c3cc(Cl)cc(Cl)c3)(C(F)(F)F)C2)ccc1C(=O)NC1CS(=O)(=O)C1 (stereo not shown) [Compound C012, 4-[5-(3,5-dichlorophenyl)-2-oxido-5-(trifluoromethyl)-4H-isoxazol-2-ium-3-yl]-N-(1,1-dioxothietan-3-yl)-2-methyl-benzamide]
not listed: [6]
≥ 80%: all other assays above

O=C(NC1CSC1)c1ccc(C2=NOC(c3cc(Cl)cc(Cl)c3)(C(F)(F)F)C2)c([N+](=O)[O-])c1 (stereo not shown) [Compound B55, 4-[5-(3,5-dichlorophenyl)-5-trifluoromethyl-4H-isoxazol-3-yl]-3-nitro-N-(thietan-3-yl)benzamide]
≥ 80%: [1] | [2] | [4] | [5]

Cc1cc(C2=NOC(c3cn(CC(F)F)cc3C(C)(C)C)(C(F)(F)F)C2)ccc1C(=O)NC1CSC1 (stereo not shown) [Compound C005, 4-[5-[4-tert-butyl-1-(2,2-difluoroethyl)pyrrol-3-yl]-5-(trifluoromethyl)-4H-isoxazol-3-yl]-2-methyl-N-(thietan-3-yl)benzamide]
not listed: [6]
≥ 80%: all other assays above

Cc1cc(C2=NOC(c3c[nH]c(C(F)(F)F)c3)(C(F)(F)F)C2)ccc1C(=O)NC1C[S+]([O-])C1 (stereo not shown) [Compound C009, 2-methyl-N-(1-oxothietan-3-yl)-4-[5-(trifluoromethyl)-5-[5-(trifluoromethyl)-1H-pyrrol-3-yl]-4H-isoxazol-3-yl]benzamide]
≥ 80%: [1] | [3] | [6]

Cc1cc(C2=NOC(c3cc(C(C)(C)C)c[nH]3)(C(F)(F)F)C2)ccc1C(=O)NC1CSC1 (stereo not shown) [Compound C003, 4-[5-(4-tert-butyl-1H-pyrrol-2-yl)-5-(trifluoromethyl)-4H-isoxazol-3-yl]-2-methyl-N-(thietan-3-yl)benzamide]
≥ 80%: [2]
